Assay results as given in patent US20100216779A1 (GLAXOSMITHKLINE LLC, priority 2007, published 2010).

Columns and labels:
[1] = test system: NCI-H929 (multiple myeloma); test: Inhibition of cell proliferation, CellTiter-Glo, NCI-H929; format: cell-based; conditions: Homo sapiens, 72 h
Procedure, shortened: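 Cells were grown in medium with 10% FBS at 37° C, 5% CO2. Cell number was read as CellTiter-Glo luminescence (cellular ATP), with untreated wells as control.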

COLO205 (colon) = test: Inhibition of cell proliferation, CellTiter-Glo, COLO205; format: cell-based; conditions: Homo sapiens, COLO 205, 72 h
Procedure, shortened: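 Exponentially growing COLO205 cells in medium with 10% FBS were plated below 2000 cells/well at 37 °C, 5% CO2. Untreated wells served as controls.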

[2] = molecular target: T1, human IGF-1R (NIH-3T3 cells over expressing human IGF-1R) (Homo sapiens, UniProt P08069); test: IGF-1R cellular autophosphorylation (DELFIA); format: cell-based; conditions: IGF-1 stimulated
T1 construct: expressed in transfected cells; host or cells: NIH-3T3 (mouse fibroblasts)
Procedure, shortened: (§1)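 Receptor-overexpressing NIH-3T3, 10% FBS, 37 °C; cpd 30 uM–1.5 nM × 2 h; stim IGF-1 30 ng/mL (IGF-1R) or insulin 3 ug/mL (IR), 15 min; lysate DELFIA, Eu anti-pTyr; % of stimulated signal.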

[3] = molecular target: T2, IR (NIH-3T3 cells over expressing human IGF-1R or IR) (Homo sapiens, UniProt P06213); test: IR cellular autophosphorylation (DELFIA); format: cell-based; conditions: NIH-3T3 cells over expressing IR, insulin stimulated
T2 construct: expressed in transfected cells; host or cells: NIH-3T3 (mouse fibroblasts)
Procedure, shortened: as §1

human IR (hIR) = molecular target: T3, human IR (hIR) (Homo sapiens, UniProt P06213); test: IR TR-FRET assay using peptide as the phosphoacceptor; format: biochemical; conditions: 10 μM ATP, 0.5 nM activated enzyme; for IC50: read-out: IR pIC50 (converted)
T3 construct: containing amino acid residues 979-1382 of human IR; GST (N); rTEV protease site (linker between GST and kinase) (N); made in house; host or cells: Sf9 cells, baculovirus (same process as hIGF1R)

human IGF1R (hIGF1R) = molecular target: T4, human IGF1R (hIGF1R) (Homo sapiens, UniProt P08069); test: IGF1R TR-FRET assay using peptide as the phosphoacceptor; format: biochemical; conditions: 10 μM ATP, 0.5 nM activated enzyme; for IC50: read-out: IGF-1R pIC50 (converted)
T4 construct: containing amino acid residues 957-1367 of human IGF1R; made in house; host or cells: Sf9 cells, baculovirus
Protocol: A. IR and IGF1 R Time Resolved Fluorescence Resonance Energy Transfer (TR-FRET) Assay Using Peptide as the Phosphoacceptor
Substrate phosphorylation assays are carried out as follows:
The Source of Substrate Peptide
The biotinylated substrate peptide, (sequence-Biotin-aminohexyl-AEEEEY*[…]-NH2) SEQ. ID. 1 is purchased from QCB, Inc. (Hopkinton, Mass.). Purity is determined by HPLC. The calculated molecular mass of the peptide is 2216 dalton. Tyrosine phosphorylation by human IGF1R (hIGF1R) or human IR (hIR) occurs as indicated (Y*) in the peptide sequence described. Solid peptide sample is dissolved to approximately 1 mM in DMSO, aliquoted, and stored at −20° C. until use. True peptide concentration is determined by amino acid analysis.
The Source of Enzyme: • hIGF1R: GST-rTEV-IGF-1R (957-1367) containing amino acid residues 957-1367 of human IGF1R (as annotated by National Center for Biotechnology Information (NCBI) accession number NP_000866) is purified from a baculovirus expression system in Sf9 cells using Glutathione Sepharose 4FF column chromatography followed by Sephadex-200 size exclusion column chromatography. Enzyme purity of approximately 95% is achieved. Samples, in 25 mM Tris-HCl, 250 mM NaCl, 5% glycerol, 1 mM DTT, pH 7.5, are stored at −80° C. until use. • hIR: GST-rTEV-IR(979-1382) containing amino acid residues 979-1382 of human IR (as annotated by NCBI accession number NP_000199) is expressed and purified by the same process as hIGF1R. Enzyme purity of approximately 92% is achieved. Samples, in 25 mM Tris-HCl, 250 mM NaCl, 5% glycerol, 1 mM DTT, pH 7.5, are stored at −80° C. until use.
Activation of hIGF1R and hIR by Autophosphorylation: • hIGF1R: Activation of GST-rTEV-IGF-1R(957-1367) is achieved by a 4 minute incubation of hIGF1R (2.7 μM final) with 2 mM ATP in 50 mM HEPES, 20 mM MgCl2, 0.1 mg/mL BSA, at room temperature. Autophosphorylation is stopped by addition of EDTA (to 100 mM final). Aliquoted samples are flash frozen in liquid nitrogen and stored at −80° C. until use. • hIR: Activation of […] is achieved by a 5 minute incubation of hIR (2.7 μM final) with 2 mM ATP in 100 mM HEPES, 10 mM MgCl2, 0.1 mg/mL BSA, at room temperature. Autophosphorylation is stopped by addition of EDTA (to 100 mM final). Aliquoted samples are flash frozen in liquid nitrogen and stored at −80° C. until use. • Kinase Assay of Purified hIGF1R or hIR:
Assays are performed in 384-well (Greiner, Catalog No. 784076) microtiter plates. Reaction buffer (50 mM HEPES buffer, pH 7.5; 10 mM MgCl2; 3 mM DTT; 1 mM CHAPS; 0.1 mg/mL BSA) for peptide phosphorylation (10 μl volume) contained, in final concentrations, 500 nM biotinylated peptide substrate; 10 μM ATP; and purified, activated hIGF1R or hIR (0.5 nM). Some compounds were initially assayed against IGF1R in buffer without DTT or CHAPS. […] Compounds, titrated in DMSO, are evaluated at eleven concentrations ranging from 50 μM to 0.2 nM. […] No effect on activity relative to controls without DMSO is observed for hIGF1R or IR at these DMSO amounts. Reactions are incubated for 1 hour at room temperature and are stopped by a 5 μl addition of EDTA (to 33 mM). A further addition of 5 μl detection reagents (for final 7 nM Streptavidin-APC (PerkinElmer #CR130-150), 1 nM Europium-labeled anti-phosphotyrosine monoclonal antibody (PerkinElmer #AD0067), added in reaction buffer (without DTT), is required for signal generation. After 30 minutes, signal is read on PerkinElmer Viewlux microplate imager or Wallac Victor fluorometer.
Data were fitted to the curve described by:
y=((Vmax*x)/(K+x)) where • Vmax is the upper asymptote and • K is the IC50.
The results for each tested compound were recorded as pIC50 calculated as follows: […]

T4 sequence (P08069 957-1367): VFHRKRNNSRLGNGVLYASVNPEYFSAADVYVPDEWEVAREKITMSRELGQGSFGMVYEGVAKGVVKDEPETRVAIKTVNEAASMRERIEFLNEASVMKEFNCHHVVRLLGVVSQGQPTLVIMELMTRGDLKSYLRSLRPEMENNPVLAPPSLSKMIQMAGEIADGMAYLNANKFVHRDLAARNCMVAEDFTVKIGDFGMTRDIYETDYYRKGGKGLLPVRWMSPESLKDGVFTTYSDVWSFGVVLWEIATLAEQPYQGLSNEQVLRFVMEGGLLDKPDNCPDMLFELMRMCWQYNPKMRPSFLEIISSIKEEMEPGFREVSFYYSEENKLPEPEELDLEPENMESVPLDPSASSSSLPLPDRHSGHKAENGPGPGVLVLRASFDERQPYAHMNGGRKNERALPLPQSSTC
T3 sequence (P06213 979-1382): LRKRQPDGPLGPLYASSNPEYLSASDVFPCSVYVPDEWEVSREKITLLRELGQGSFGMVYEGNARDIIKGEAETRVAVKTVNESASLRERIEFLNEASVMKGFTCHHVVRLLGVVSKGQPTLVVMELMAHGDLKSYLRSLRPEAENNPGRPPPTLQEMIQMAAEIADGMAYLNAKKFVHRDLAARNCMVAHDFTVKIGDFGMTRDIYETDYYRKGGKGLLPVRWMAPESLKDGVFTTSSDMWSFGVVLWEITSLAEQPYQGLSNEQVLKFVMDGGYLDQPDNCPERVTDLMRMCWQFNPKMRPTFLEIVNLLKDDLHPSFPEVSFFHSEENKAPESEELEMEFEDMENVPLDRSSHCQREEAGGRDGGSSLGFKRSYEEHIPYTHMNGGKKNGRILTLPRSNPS
T2 sequence (P06213 28-1382): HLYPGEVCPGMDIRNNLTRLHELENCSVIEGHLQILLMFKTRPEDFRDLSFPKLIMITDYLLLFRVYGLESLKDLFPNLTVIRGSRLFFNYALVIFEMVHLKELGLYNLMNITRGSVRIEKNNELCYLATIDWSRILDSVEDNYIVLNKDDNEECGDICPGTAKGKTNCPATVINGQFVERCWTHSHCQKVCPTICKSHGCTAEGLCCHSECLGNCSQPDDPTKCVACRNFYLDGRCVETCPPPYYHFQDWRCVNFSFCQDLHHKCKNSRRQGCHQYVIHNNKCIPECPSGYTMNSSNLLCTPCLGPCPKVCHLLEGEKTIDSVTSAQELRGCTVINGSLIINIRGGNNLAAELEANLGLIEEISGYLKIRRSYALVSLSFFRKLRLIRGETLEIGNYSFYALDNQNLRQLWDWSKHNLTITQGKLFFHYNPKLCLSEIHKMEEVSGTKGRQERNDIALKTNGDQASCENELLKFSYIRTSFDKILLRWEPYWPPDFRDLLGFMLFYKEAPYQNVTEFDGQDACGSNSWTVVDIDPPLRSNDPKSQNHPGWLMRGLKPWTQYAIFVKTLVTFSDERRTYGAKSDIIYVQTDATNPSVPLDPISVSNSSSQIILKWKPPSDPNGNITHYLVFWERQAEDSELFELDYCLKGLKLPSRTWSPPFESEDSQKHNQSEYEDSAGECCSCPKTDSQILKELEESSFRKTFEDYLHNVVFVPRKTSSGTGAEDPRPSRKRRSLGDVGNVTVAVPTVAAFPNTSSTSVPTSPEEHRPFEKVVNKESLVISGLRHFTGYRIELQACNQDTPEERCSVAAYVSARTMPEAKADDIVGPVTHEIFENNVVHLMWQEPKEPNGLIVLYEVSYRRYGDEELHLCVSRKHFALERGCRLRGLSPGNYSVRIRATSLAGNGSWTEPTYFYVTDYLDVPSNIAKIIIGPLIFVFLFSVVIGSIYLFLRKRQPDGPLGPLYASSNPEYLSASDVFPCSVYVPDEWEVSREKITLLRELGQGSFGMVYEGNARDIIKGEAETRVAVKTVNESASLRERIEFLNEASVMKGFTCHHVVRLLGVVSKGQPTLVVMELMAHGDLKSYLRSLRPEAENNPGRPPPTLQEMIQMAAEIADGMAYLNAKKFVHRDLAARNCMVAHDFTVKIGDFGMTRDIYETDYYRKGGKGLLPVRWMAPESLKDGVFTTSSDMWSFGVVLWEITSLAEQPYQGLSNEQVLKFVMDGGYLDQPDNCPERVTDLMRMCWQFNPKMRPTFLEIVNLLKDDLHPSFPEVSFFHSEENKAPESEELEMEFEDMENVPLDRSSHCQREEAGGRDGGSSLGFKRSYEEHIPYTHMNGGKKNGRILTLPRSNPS
T1 sequence (P08069 31-1367): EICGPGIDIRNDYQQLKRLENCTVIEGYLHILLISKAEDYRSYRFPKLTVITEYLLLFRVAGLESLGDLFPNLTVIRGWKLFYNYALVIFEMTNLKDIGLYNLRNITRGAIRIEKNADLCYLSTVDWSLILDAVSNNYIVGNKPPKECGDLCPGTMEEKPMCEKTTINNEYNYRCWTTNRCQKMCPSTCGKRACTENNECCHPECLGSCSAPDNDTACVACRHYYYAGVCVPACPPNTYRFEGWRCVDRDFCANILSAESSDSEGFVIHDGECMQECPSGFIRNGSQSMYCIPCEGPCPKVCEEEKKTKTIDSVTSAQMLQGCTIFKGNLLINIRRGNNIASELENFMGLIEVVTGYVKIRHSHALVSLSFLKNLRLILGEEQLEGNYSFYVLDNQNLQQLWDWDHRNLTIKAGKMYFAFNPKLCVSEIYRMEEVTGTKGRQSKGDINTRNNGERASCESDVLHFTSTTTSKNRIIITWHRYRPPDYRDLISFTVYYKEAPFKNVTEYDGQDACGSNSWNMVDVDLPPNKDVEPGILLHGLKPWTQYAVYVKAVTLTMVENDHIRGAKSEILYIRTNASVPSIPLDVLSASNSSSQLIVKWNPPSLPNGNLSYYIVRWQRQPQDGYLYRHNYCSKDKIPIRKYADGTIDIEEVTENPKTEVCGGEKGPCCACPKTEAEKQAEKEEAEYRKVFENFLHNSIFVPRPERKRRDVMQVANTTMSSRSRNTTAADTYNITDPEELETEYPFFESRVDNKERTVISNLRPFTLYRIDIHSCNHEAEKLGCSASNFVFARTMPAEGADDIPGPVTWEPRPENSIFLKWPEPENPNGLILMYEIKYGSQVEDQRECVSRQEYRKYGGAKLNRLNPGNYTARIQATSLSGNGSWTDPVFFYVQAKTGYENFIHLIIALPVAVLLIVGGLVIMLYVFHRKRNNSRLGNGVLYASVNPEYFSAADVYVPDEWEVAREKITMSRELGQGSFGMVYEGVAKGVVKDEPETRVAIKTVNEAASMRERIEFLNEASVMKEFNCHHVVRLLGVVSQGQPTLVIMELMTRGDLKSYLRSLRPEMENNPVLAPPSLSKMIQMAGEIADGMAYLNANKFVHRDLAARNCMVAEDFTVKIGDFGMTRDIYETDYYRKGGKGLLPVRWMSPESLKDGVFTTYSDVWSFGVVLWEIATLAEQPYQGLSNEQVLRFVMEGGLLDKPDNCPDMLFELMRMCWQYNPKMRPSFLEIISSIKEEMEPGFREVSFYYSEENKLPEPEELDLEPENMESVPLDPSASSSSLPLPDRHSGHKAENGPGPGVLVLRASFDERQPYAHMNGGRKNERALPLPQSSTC

SMILES	IC50 [1] [nM]	IC50 (COLO205 (colon)) [nM]	IC50 [2] [nM]	IC50 [3] [nM]	IC50 (human IR (hIR)) [nM]	IC50 (human IGF1R (hIGF1R)) [nM]	IR pIC50 (human IR (hIR))	IGF-1R pIC50 (human IGF1R (hIGF1R))
CCOc1ccc(-c2nc3ccccn3c2-c2ccnc(Nc3cc(CC)c(N4CCC(N5CCN(S(C)(=O)=O)CC5)CC4)cc3OC)n2)cc1C(=O)Nc1c(F)cccc1F [Example 206, N-(2,6-difluorophenyl)-5-(3-{2-[(5-ethyl-2-(methyloxy)-4-{4-[4-(methylsulfonyl)-1-piperazinyl]-1-piperidinyl}phenyl)amino]-4-pyrimidinyl}imidazo[1,2-a]pyridin-2-yl)-2-(ethyloxy)benzamide]	< 250	< 250	< 100	< 100	–	–	++ (at least one average pIC50 measurement greater than 6 against the kinase tested but no average measurement greater than pIC50 of 7)	++ (at least one average pIC50 measurement greater than 6 against the kinase tested but no average measurement greater than pIC50 of 7)
CCOc1cc(N2CCC(CCS(C)(=O)=O)CC2)c(C)cc1Nc1nccc(-c2c(-c3ccc(OC(C)C)c(C(=O)Nc4c(F)cccc4F)c3)nc3ccccn23)n1 [Example 215]	< 250	< 250	< 100	< 100	–	–	++ (at least one average pIC50 measurement greater than 6 against the kinase tested but no average measurement greater than pIC50 of 7)	++ (at least one average pIC50 measurement greater than 6 against the kinase tested but no average measurement greater than pIC50 of 7)
CCOc1cc(N2CCC(CCS(C)(=O)=O)CC2)c(CC)cc1Nc1nccc(-c2c(-c3ccc(OCC)c(C(=O)Nc4c(F)cccc4F)c3)nc3ccccn23)n1 [Example 208, N-(2,6-difluorophenyl)-5-(3-{2-[(5-ethyl-2-(ethyloxy)-4-{4-[2-(methylsulfonyl)ethyl]-1-piperidinyl}phenyl)amino]-4-pyrimidinyl}imidazo[1,2-a]pyridin-2-yl)-2-(ethyloxy)benzamide]	< 250	< 250	< 100	< 100	–	–	++ (at least one average pIC50 measurement greater than 6 against the kinase tested but no average measurement greater than pIC50 of 7)	++ (at least one average pIC50 measurement greater than 6 against the kinase tested but no average measurement greater than pIC50 of 7)

Second part, led by results:

IC50 [1] [nM]	IC50 (COLO205 (colon)) [nM]	IC50 [2] [nM]	IC50 [3] [nM]	IC50 (human IR (hIR)) [nM]	IC50 (human IGF1R (hIGF1R)) [nM]	SMILES	IR pIC50 (human IR (hIR))	IGF-1R pIC50 (human IGF1R (hIGF1R))
< 250	< 250	< 100	< 100	< 100	< 100	COc1cc(N2CCN(S(C)(=O)=O)CC2)c(C)cc1Nc1nccc(-c2c(-c3ccc(OC)c(C(=O)Nc4c(F)cccc4F)c3)nc3ccccn23)n1 [Example 225, N-(2,6-difluorophenyl)-5-{3-[2-({5-methyl-2-(methyloxy)-4-[4-(methylsulfonyl)-1-piperazinyl]phenyl}amino)-4-pyrimidinyl]imidazo[1,2-a]pyridin-2-yl}-2-(methyloxy)benzamide]	–	–
–	250 to 1000	> 500	> 500	< 100	< 100	CCOc1cc(CCN2CCN(C)CC2)ccc1Nc1nccc(-c2c(-c3ccc(OC)c(C(=O)Nc4c(F)cccc4F)c3)nc3ccccn23)n1 [Example 146, N-(2,6-difluorophenyl)-5-{3-[2-({2-(ethyloxy)-4-[2-(4-methyl-1-piperazinyl)ethyl]-phenyl}amino)-4-pyrimidinyl]imidazo[1,2-a]pyridin-2-yl}-2-(methyloxy)benzamide]	–	–
< 250	< 250	< 100	< 100	< 100	< 100	CCOc1ccc(-c2nc3ccccn3c2-c2ccnc(Nc3cc(Cl)c(N4CCN(CCS(C)(=O)=O)CC4)cc3OC)n2)cc1C(=O)Nc1c(F)cccc1F [Example 212]	–	–
